Test systems include HS 578T breast; SK-MEL-5 melanoma; OVCAR-4 ovarian; SK-MEL-28 melanoma; LOX IMVI melanoma; K-562 leukemia; OVCAR-5 ovarian; MOLT-4 leukemia; HCT-15 colon; MALME-3M melanoma.
What all share (assay): inhibition of tumour cell growth, NCI panel, 48 h

The structures appear in SMILES notation.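 Growth conditions: 96-well plates. Treatment: test compound, 48 hours, 5 concentrations. Analysis: linear interpolation between bracketing concentrations; unreached endpoints set to highest concentration. TGI denotes the concentration required for complete inhibition of growth.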 Bounds are passed on as bounds.

On to `CCOC(=O)c1cn2c(nc1=O)N[C@H]1CCCC[C@@H]12`, for which the TGI with HS 578T breast, with SK-MEL-5 melanoma, in the assay on OVCAR-4 ovarian, in the assay with SK-MEL-28 melanoma, in the assay on LOX IMVI melanoma and in the assay on K-562 leukemia was above 100 µM throughout. Further, the TGI in the assay on OVCAR-5 ovarian, in the assay with MOLT-4 leukemia, with HCT-15 colon and in the assay with MALME-3M melanoma was above 100 µM in each case.

As to `O=[N+]([O-])c1ccc(Oc2c(Cl)cc(S(=O)(=O)/N=C(\NO)Nc3ccc(Cl)cc3)cc2Cl)cc1`, the TGI with HS 578T breast stood at 36.7 µM; in the assay on SK-MEL-5 melanoma, 22.2 µM; in the assay with OVCAR-4 ovarian, 17.3 µM; in the assay with SK-MEL-28 melanoma, 28.7 µM; in the assay with LOX IMVI melanoma, 24.9 µM; with K-562 leukemia, 35.9 µM. The TGI in the assay on OVCAR-5 ovarian worked out at 25.8 µM; in the assay on MOLT-4 leukemia, 21.7 µM; in the assay with HCT-15 colon, 24.5 µM; in the assay on MALME-3M melanoma, 29 µM.

Regarding `COP(=O)(/C=C/c1cc(C(=O)OCc2ccccc2)n(S(=O)(=O)c2ccccc2)c1)OC`, the TGI in the assay on HS 578T breast, with SK-MEL-5 melanoma, with OVCAR-4 ovarian, with SK-MEL-28 melanoma, in the assay on LOX IMVI melanoma and in the assay on K-562 leukemia was above 100 µM throughout. Further, the TGI in the assay with OVCAR-5 ovarian, in the assay on MOLT-4 leukemia, with HCT-15 colon and with MALME-3M melanoma was above 100 µM in each case.

On to `CCOC(=O)c1ccc(NCC#CCN2CCOCC2)cc1`, for which the TGI with HS 578T breast, in the assay on SK-MEL-5 melanoma, with OVCAR-4 ovarian, in the assay with SK-MEL-28 melanoma, in the assay with LOX IMVI melanoma and with K-562 leukemia was above 100 µM each time. The TGI in the assay with OVCAR-5 ovarian, with MOLT-4 leukemia, in the assay on HCT-15 colon and in the assay with MALME-3M melanoma was above 100 µM throughout.

Turning to `CCN(CCCN(CC)C(=O)Nc1c(C)cccc1C)C(=O)Nc1c(C)cccc1C`, the TGI with HS 578T breast, in the assay on SK-MEL-5 melanoma, in the assay on OVCAR-4 ovarian, with SK-MEL-28 melanoma, with LOX IMVI melanoma and in the assay on K-562 leukemia was above 100 µM each time. The TGI with OVCAR-5 ovarian, in the assay on MOLT-4 leukemia, in the assay on HCT-15 colon and in the assay on MALME-3M melanoma was above 100 µM throughout.

On to `O=C(O)c1ccccc1CC1Cc2ccccc2C1=O` (stereo not given), for which the TGI in the assay with HS 578T breast, with SK-MEL-5 melanoma, in the assay with OVCAR-4 ovarian, in the assay with SK-MEL-28 melanoma, in the assay with LOX IMVI melanoma and in the assay with K-562 leukemia was above 100 µM in each case. The TGI in the assay with OVCAR-5 ovarian, in the assay on MOLT-4 leukemia, in the assay with HCT-15 colon and in the assay with MALME-3M melanoma was above 100 µM in each case.

With `COC(=O)C1CCC(=O)N1C(c1ccc(OC)cc1)c1ccc2c(c1)OCO2` (stereo not given), the TGI with HS 578T breast was above 100 µM; with SK-MEL-5 melanoma, 81.7 µM; with OVCAR-4 ovarian it was above 100 µM; with SK-MEL-28 melanoma it was above 100 µM; in the assay with LOX IMVI melanoma, above 100 µM; in the assay with K-562 leukemia it was above 100 µM. Further, the TGI in the assay with OVCAR-5 ovarian, with MOLT-4 leukemia, in the assay with HCT-15 colon and in the assay with MALME-3M melanoma was above 100 µM throughout.

As for `Cc1ccc(S(=O)(=O)N/N=C/C2(c3ccccc3)c3ccccc3-c3ccccc32)cc1`, the TGI in the assay with HS 578T breast was 39.3 µM; in the assay with SK-MEL-5 melanoma, 23.9 µM; with OVCAR-4 ovarian it was 24.3 µM; with SK-MEL-28 melanoma it was 28.6 µM; in the assay with LOX IMVI melanoma it was 26.1 µM; with K-562 leukemia it was above 100 µM. Besides, the TGI was 25.1 µM in the assay with OVCAR-5 ovarian, above 100 µM with MOLT-4 leukemia, 22.4 µM with HCT-15 colon and 19.2 µM in the assay on MALME-3M melanoma.

Regarding `Oc1ccc([I+]c2ccccc2)cc1O`, the TGI is above 100 µM in the assay with HS 578T breast; above 100 µM in the assay on SK-MEL-5 melanoma; above 100 µM in the assay with OVCAR-4 ovarian; above 100 µM in the assay with SK-MEL-28 melanoma; above 100 µM with LOX IMVI melanoma; 54.3 µM in the assay on K-562 leukemia. In addition, the TGI in the assay on OVCAR-5 ovarian was above 100 µM; in the assay with MOLT-4 leukemia, 85.3 µM; in the assay with HCT-15 colon, above 100 µM; with MALME-3M melanoma, above 100 µM.

Regarding `NC1=NCC(CN2CCOCC2)O1` (stereo not given), the TGI with HS 578T breast, in the assay with SK-MEL-5 melanoma, in the assay on OVCAR-4 ovarian, in the assay on SK-MEL-28 melanoma, with LOX IMVI melanoma and with K-562 leukemia was above 100 µM throughout. Moreover, the TGI in the assay on OVCAR-5 ovarian, in the assay with MOLT-4 leukemia, in the assay on HCT-15 colon and with MALME-3M melanoma was above 100 µM in each case.

With `CC1=NN(c2cccc(Cl)c2)C2(C1=C/C=C/c1ccccc1)C(Cl)C(=O)N2c1nc2ccccc2s1` (stereo not given), the TGI is 49 µM in the assay on HS 578T breast; above 58.7 µM in the assay with SK-MEL-5 melanoma; above 100 µM with OVCAR-4 ovarian; above 100 µM in the assay with SK-MEL-28 melanoma; 57 µM in the assay on LOX IMVI melanoma; 31 µM with K-562 leukemia. Further, the TGI with OVCAR-5 ovarian is above 71.2 µM; in the assay with MOLT-4 leukemia it was 12.1 µM; in the assay on HCT-15 colon, above 82.1 µM; in the assay on MALME-3M melanoma, above 100 µM.

As for `NS(=O)(=O)c1cc(Cl)c(NC(=S)NC(=O)Nc2ccc(Cl)c(Cl)c2)c(Cl)c1`, the TGI is above 100 µM in the assay on HS 578T breast; 40.3 µM in the assay with SK-MEL-5 melanoma; above 100 µM in the assay on OVCAR-4 ovarian; above 100 µM in the assay on SK-MEL-28 melanoma; above 100 µM in the assay on LOX IMVI melanoma; above 100 µM with K-562 leukemia. The TGI in the assay on OVCAR-5 ovarian, in the assay on MOLT-4 leukemia, in the assay with HCT-15 colon and in the assay with MALME-3M melanoma was above 100 µM throughout.

As for `COc1cccc2c(=O)oc(-c3ccc(C(C)(C)C)cc3)nc12`, the TGI in the assay with HS 578T breast is above 100 µM; with SK-MEL-5 melanoma, 87.4 µM; in the assay on OVCAR-4 ovarian, above 100 µM; with SK-MEL-28 melanoma, above 100 µM; with LOX IMVI melanoma, 53.9 µM; in the assay with K-562 leukemia, above 100 µM. Further, the TGI was above 100 µM in the assay with OVCAR-5 ovarian, 48.2 µM in the assay on MOLT-4 leukemia, above 100 µM in the assay with HCT-15 colon and above 100 µM in the assay on MALME-3M melanoma.

Take `CC1OC(OC2C(OC(=O)[C@]34CCC(C)(C)C[C@H]3C3=CC[C@@H]5[C@@]6(C)CC[C@H](OC7OC(C(=O)O)C(O)C(O)C7O)C(C)(C)[C@@H]6CC[C@@]5(C)[C@]3(C)C[C@H]4O)OCC(O)C2O)C(O)C(OC2OCC(O)(CO)C2O)C1OC1OCC(O)C(O)C1O` (stereo not given in full): the TGI in the assay on HS 578T breast was found to be 40 µM; in the assay with SK-MEL-5 melanoma, 28.1 µM; in the assay on OVCAR-4 ovarian, 22.7 µM; in the assay with SK-MEL-28 melanoma, 15.2 µM; in the assay on LOX IMVI melanoma it was 26.6 µM; with K-562 leukemia it was 35.8 µM. For the same molecule, the TGI in the assay on OVCAR-5 ovarian turned out to be 22.9 µM; in the assay on MOLT-4 leukemia it was 38.8 µM; in the assay with HCT-15 colon, 30 µM; in the assay with MALME-3M melanoma it was 24.7 µM.

Values taken from PubChem BioAssay (NCI).
